Measured values published in patent US10526278B2, “Inhibitors of quorum sensing receptor LasR” (priority 2017, dated 2020).

Legend:
[1] = molecular target: T1, LasR (Pseudomonas aeruginosa, UniProt P25084); assay type: cell-based; conditions: measured vs 25 nM OdDHL
Source text: (§1) Methods for assessing LasR activation and inhibition are known in the art. More specifically methods as described in Moore et al. 2015 are used herein to assess activation and inhibition.
IC50 is the concentration of an inhibitor where the response or binding is reduced by half (half maximal inhibitory concentration).

[2] = test system: P. aeruginosa PAO1; conditions: earlier reports; cited from earlier work
[3] = molecular target: T1, LasR; assay: LasR activation (agonism) assay, methods of Moore et al. 2015; assay type: cell-based; conditions: at high concentrations; FIGS. 8B, 9B, 10B
Source text: as §1
FIGS. 8A and 8B compare % LasR inhibition (8A) with % LasR activation (8B) for control compound V-06-018.
FIGS. 9A and 9B compare % LasR inhibition (9A) with % LasR activation (9B) for compound 33.
FIGS. 10A and 10B compare % LasR inhibition (10A) with % LasR activation (10B) for compound 32 (thiophene analog of compound 33).

[4] = test system: P. aeruginosa PAO1; assay: Elastase B production in P. aeruginosa PAO1 culture supernatants (elastin-Congo red); assay type: cell-based, Pseudomonas aeruginosa; conditions: compound alone 100 μM; % elastase relative to DMSO; FIG. 12A
Description: FIG. 12A is a graph comparing inhibition of elastase (as % relative to DMSO) for certain compounds of the invention. The amount of indicated compound added was 100 μM. M64 alone or in combination was added in the amount of 20 μM. The assay is conducted as described in Welsh et al. (2016) for compounds shown as well as certain compounds in combination with compound M-64 (Starkey, M. et al. (2014)):
The amount of elastase B in P. aeruginosa culture supernatants was measured following a reported protocol (Welsh et al., 2017 and Geske et al., 2007b) with modifications. A 10 mL overnight culture of P. aeruginosa PAO1 was grown for 16 hr. An inoculating culture was prepared by diluting the overnight culture 1:100 into freshly prepared assay medium, and 2 mL aliquots of this subculture were added to each test tube (0.5% DMSO, final). The cultures were grown for 17 hr, and the final cell density measured by reading OD600. […]
To quantify elastase B activity, the undigested elastin was pelleted by centrifugation of the assay plate at […] for 10 min, after which […] of the supernatant was transferred to a new, clear 96-well plate, and the absorbance at 490 nm measured. Media background absorbance (measured from a “no bacteria” control) was subtracted, the resulting values growth normalized by dividing by the final OD600, and the data plotted relative to a DMSO-treated positive control.

T1 sequence (P25084 whole entry): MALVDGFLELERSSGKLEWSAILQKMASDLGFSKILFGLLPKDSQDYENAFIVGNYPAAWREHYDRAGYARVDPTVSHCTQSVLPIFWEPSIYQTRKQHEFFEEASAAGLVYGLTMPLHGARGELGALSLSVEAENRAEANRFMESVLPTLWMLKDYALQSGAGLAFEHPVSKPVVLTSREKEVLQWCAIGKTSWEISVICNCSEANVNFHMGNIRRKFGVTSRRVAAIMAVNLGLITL

SMILES: CCCCCCCCCC(=O)CC(=O)Nc1ccccc1 [Compound V-06-018]
- Maximum Inhibition (95% CL) [1]: 87 (91-85) %
- IC50 ([1]; read-out: IC50 (95% CL)): 2 µM
- inhibition of elastase production (previously shown) [2]: previously been shown to inhibit elastase production
- % LasR activation [3]: does not exhibit LasR activation
- inhibition of production of virulence factor elastase [4]: little or no inhibition
